Source: ChEMBL document CHEMBL5370548, “Discovery, optimization and biological evaluation of novel HBsAg production inhibitors” (Eur J Med Chem, 2023)
Activity calls are given as the source filed them. The calls are words filed in the database; no cut-off is given here.

What was measured:
[1] = Metabolic stability in mouse liver microsomes assessed as half life at 1 uM preincubated for 5 mins followed by NADPH addition and measured upto 60 min by LC-MS/MS analysis; format: ADME, Microsome; settings: time < 65 min
[2] = Metabolic stability in human liver microsomes assessed as half life at 1 uM preincubated for 5 mins followed by NADPH addition and measured upto 60 min by LC-MS/MS analysis; format: ADME, Microsome; settings: time < 65 min
[3] = Metabolic stability in mouse liver microsomes assessed as parent compound remaining at 1 uM measured upto 60 min in presence of NADPH by LC-MS/MS analysis; format: ADME, Microsome; settings: read-out: Stability
Hepatitis B virus [4] = assay: Antiviral activity against HBV infected in human HepG2.2.15 cells assessed as inhibition of HBV DNA incubated for 6 days with replacement of fresh media for every 72 hrs by real-time qPCR analysis; format: functional, organism-based
Hepatitis B virus [5] = assay: Antiviral activity against HBV infected in human HepG2.2.15 cells assessed as inhibition of HBsAg level incubated for 6 days with replacement of fresh media for every 72 hrs by real-time qPCR analysis; format: functional, organism-based
[6] = Metabolic stability in human liver microsomes assessed as parent compound remaining at 1 uM measured upto 60 min in presence of NADPH by LC-MS/MS analysis; format: ADME, Microsome; settings: read-out: Stability
[7] = Metabolic stability in mouse liver microsomes assessed as intrinsic clearance at 1 uM preincubated for 5 mins followed by NADPH addition and measured upto 60 min by LC-MS/MS analysis; format: ADME, Microsome; settings: time < 65 min, read-out: CLH
[8] = AUC (0 to t) in ICR mouse at 10 mg/kg, IG by UPLC-MS/MS analysis; format: ADME, organism-based; design: dose 10 mg/kg, route ig; settings: in vivo, po
[9] = Cmax in ICR mouse at 10 mg/kg, IG by UPLC-MS/MS analysis; format: ADME, organism-based; design: dose 10 mg/kg, route ig; settings: in vivo, po
[10] = Half life in ICR mouse at 1 mg/kg, iv by UPLC-MS/MS analysis; format: ADME, organism-based; settings: in vivo
[11] = AUC (0 to infinity) in ICR mouse at 1 mg/kg, iv by UPLC-MS/MS analysis; format: ADME, organism-based; design: dose 1 mg/kg, route iv; settings: in vivo
Hepatitis B virus [12] = assay: In vivo antiviral activity against HBV infected in uPA/SCID mouse assessed as reduction in serum HBsAg level at 10 mg/kg, po administered twice daily for 28 days; format: functional, organism-based; settings: time 28.0 day
[13] = Clearance in ICR mouse at 1 mg/kg, iv by UPLC-MS/MS analysis; format: ADME, organism-based; settings: in vivo
[14] = AUC (0 to infinity) in ICR mouse at 10 mg/kg, IG by UPLC-MS/MS analysis; format: ADME, organism-based; design: dose 10 mg/kg, route ig; settings: in vivo, po
[15] = Bioavailability in ICR mouse at 1 mg/kg, iv by UPLC-MS/MS analysis; format: ADME, organism-based; settings: in vivo
Hepatitis B virus [16] = assay: In vivo antiviral activity against HBV infected in uPA/SCID mouse assessed as reduction in serum HBsAg level at 10 mg/kg, po administered twice daily for 21 days and measured upto 35 days; format: functional; settings: time <= 35 day
[17] = Half life in ICR mouse at 10 mg/kg, IG by UPLC-MS/MS analysis; format: ADME, organism-based; settings: in vivo, po
[18] = Volume of distribution at steady state in ICR mouse at 1 mg/kg, iv by UPLC-MS/MS analysis; format: ADME, organism-based; settings: in vivo, read-out: Vdss
HepG2 2.2.15 = assay: Cytotoxicity against human HepG2.2.15 cells by CCK-8 method; format: functional
[19] = Tmax in ICR mouse at 10 mg/kg, IG by UPLC-MS/MS analysis; format: ADME, organism-based; settings: in vivo, po
[20] = AUC (0 to t) in ICR mouse at 1 mg/kg, iv by UPLC-MS/MS analysis; format: ADME, organism-based; design: dose 1 mg/kg, route iv; settings: in vivo
[21] = Metabolic stability in human liver microsomes assessed as intrinsic clearance at 1 uM preincubated for 5 mins followed by NADPH addition and measured upto 60 min by LC-MS/MS analysis; format: ADME, Microsome; settings: time < 65 min, read-out: CLH

| Compound | half-life at 1 µM [2] [h] | EC50 (Hepatitis B virus [4]) [nM] | EC50 (Hepatitis B virus [5]) [nM] | remaining at 1 h, 1 µM [6] [%] | further results |
| --- | --- | --- | --- | --- | --- |
| COC1CN(c2cc(F)nc(N3[C@@H]4CCC[C@H]3c3cnc(-c5ncccn5)nc3C4)c2)C1 (single isomer, unassigned) | > 3.33 | 16 | 16 | 92.3 | half-life at 1 µM [1]: > 3.33 h; remaining at 1 h, 1 µM [3]: 80.4% |
| COc1cc(F)nc(N2[C@@H]3CCC[C@H]2c2cnc(-c4ncccn4)nc2C3)c1 (single isomer, unassigned) | – | 15 | 26 | – | – |
| CN(C)c1cc(F)nc(N2[C@@H]3CCC[C@H]2c2cnc(-c4ccccn4)nc2C3)c1 (single isomer, unassigned) | – | > 10000 | > 10000 | – | – |
| CN(C)c1cc(N2[C@H]3CC[C@@H]2c2cnc(-c4ncccn4)nc2C3)cc(F)n1 | – | 89 | 2450 | – | – |
| COCCOc1cc(F)nc(N2[C@H]3CC[C@@H]2c2cnc(-c4ncccn4)nc2C3)c1 | – | 44 | 73 | – | – |
| COC1CCN(c2cc(F)nc(N3[C@H]4CC[C@@H]3c3cnc(-c5ncccn5)nc3C4)c2)C1 (some centres undefined) | – | 189 | 193 | – | – |
| Fc1cc(N2CC(F)C2)cc(N2[C@@H]3CCC[C@H]2c2cnc(-c4ccccn4)nc2C3)n1 (single isomer, unassigned) | – | > 10000 | > 10000 | – | – |
| CN(C)c1cc(F)nc(N2[C@H]3CC[C@@H]2c2cnc(-c4ncccn4)nc2C3)c1 | > 3.33 | 34 | 41 | 86.2 | half-life at 1 µM [1]: 1.63 h; remaining at 1 h, 1 µM [3]: 63.9%; CLint scaled at 1 µM [7]: 56.2 mL/min/kg |
| Fc1cc(NCC2CC2)cc(N2[C@H]3CC[C@@H]2c2cnc(-c4ncccn4)nc2C3)n1 | – | 105 | 106 | – | – |
| Fc1cc(N2CC(F)C2)cc(N2[C@H]3CC[C@@H]2c2cnc(-c4ncccn4)nc2C3)n1 | > 3.33 | 18 | 44 | 99.7 | AUC(0-t) [8]: 27400 ng·h/mL; Cmax [9]: 9580 ng/mL; half-life [10]: 1.16 h; AUC(0-inf) [11]: 3410 ng·h/mL; Activity (Hepatitis B virus [12]): Active; clearance [13]: 4.88 mL/min/kg; AUC(0-inf) [14]: 27400 ng·h/mL; bioavailability [15]: 80.2%; Activity (Hepatitis B virus [16]): 1.08 log10/ml; half-life [17]: 1.23 h; Vd [18]: 0.49 L/kg; CC50 (HepG2 2.2.15): > 100000 nM; Tmax [19]: 0.25 h; AUC(0-t) [20]: 3410 ng·h/mL |
| COCCN(C)c1cc(F)nc(N2C[C@@H]3CC[C@H]2c2cnc(-c4ncccn4)nc23)c1 | – | 1090 | > 10000 | – | – |
| COCCN(C)c1cc(F)nc(N2C[C@H]3CC[C@@H]2c2cnc(-c4ncccn4)nc23)c1 | – | 154 | 244 | – | – |
| COCCNc1cc(F)nc(N2[C@H]3CC[C@@H]2c2cnc(-c4ncccn4)nc2C3)c1 | – | 111 | 94 | – | – |
| COCCN(C)c1cc(F)nc(N2[C@H]3CC[C@@H]2c2cnc(-c4ncccn4)nc2C3)c1 | – | 21 | 31 | – | – |
| COCCCOc1cc2c(cc1OC)-c1cc(=O)c(C(=O)O)cn1[C@H](C(C)C)C2 | – | 1 | 6 | – | AUC(0-t) [8]: 3060 ng·h/mL; Cmax [9]: 1100 ng/mL; half-life [10]: 0.653 h; AUC(0-inf) [11]: 349 ng·h/mL; clearance [13]: 47.8 mL/min/kg; AUC(0-inf) [14]: 3080 ng·h/mL; bioavailability [15]: 88.6%; half-life [17]: 1.12 h; Vd [18]: 2.7 L/kg; Tmax [19]: 0.25 h; AUC(0-t) [20]: 346 ng·h/mL |
| COc1cc(N2[C@H]3CC[C@@H]2c2cnc(-c4ncccn4)nc2C3)cc(F)c1F | > 3.33 | 169 | 443 | 99.1 | – |
| Fc1cc(N2CC(F)C2)cc(N2[C@@H]3CCC[C@H]2c2cnc(-c4ncccn4)nc2C3)n1 (single isomer, unassigned) | – | 7 | 12 | – | – |
| CN(C)c1cc(F)nc(N2[C@@H]3CCC[C@H]2c2cnc(-c4ncccn4)nc2C3)c1 (single isomer, unassigned) | 1.93 | 2 | 14 | 69 | half-life at 1 µM [1]: 1.12 h; AUC(0-t) [8]: 31000 ng·h/mL; Cmax [9]: 9900 ng/mL; half-life [10]: 1.65 h; AUC(0-inf) [11]: 2490 ng·h/mL; clearance [13]: 6.67 mL/min/kg; AUC(0-inf) [14]: 31900 ng·h/mL; CLint scaled at 1 µM [21]: 10.7 mL/min/kg; bioavailability [15]: 125%; Activity (Hepatitis B virus [16]): 0.74 log10/ml; remaining at 1 h, 1 µM [3]: 52.4%; half-life [17]: 1.95 h; CLint scaled at 1 µM [7]: 81.4 mL/min/kg; Vd [18]: 0.96 L/kg; Tmax [19]: 0.5 h; AUC(0-t) [20]: 2480 ng·h/mL |
| CS(=O)(=O)N1CCN(c2cc(F)nc(N3[C@@H]4CCC[C@H]3c3cnc(-c5ncccn5)nc3C4)c2)CC1 (single isomer, unassigned) | > 3.33 | 75 | 25 | 94 | half-life at 1 µM [1]: > 3.33 h; remaining at 1 h, 1 µM [3]: 85.7% |
| Fc1cc(N2CCOCC2)cc(N2[C@H]3CC[C@@H]2c2cnc(-c4ncccn4)nc2C3)n1 | – | 39 | 54 | – | – |
| COC1CN(c2cc(F)nc(N3[C@H]4CC[C@@H]3c3cnc(-c5ncccn5)nc3C4)c2)C1 | > 3.33 | 31 | 116 | 105 | – |
